“Also recorded” adds a separate entry of the source.

Data set [1] relates to Spleen, Liver, Thymus, and CNS tissues. In words: In vivo detection of morphine-mediated apoptosis: apoptosis positive cell counts in tissue sections after IV FAM-VAD-FMK. Particulars: bone marrow and liver tissues (conclusion).
Description: Spleen, Liver, Thymus, and CNS tissues were isolated from different treatment groups, frozen and mounted on glass slides. The various cell types were adjusted to 1×10^6 cells/mL and cytospun on a glass slide for analysis by fluorescence microscopy. Sections were photographed and analyzed by MetaMorph analysis program for apoptosis positive cell counts. Counts were analyzed by statistics software.
Spleen, Liver, Thymus, and CNS tissues were isolated from different treatment groups, frozen and mounted on glass slides. Sections were photographed and analyzed by MetaMorph analysis program for apoptosis positive cell counts. Counts were analyzed by statistics software.
The subject of another data set is SCK tumor cells. In words: Flow cytometry of cells from SCK tumors after in vivo FAM-VAD-FMK labelling. Particulars: 8.0 mg/kg ATO. Set-up: species or system mouse. As to the method:
In another set of mice, the tumors were allowed to grow for 7 days. Control mice received placebo injections as before and test mice received ATO injections as before. After 24 hours all mice received I.V. injections of FAM-VAD-FMK as before. The in vivo apoptosis detection and imaging reagent was allowed to circulate through each mouse for 30 minutes. After imaging tumor-associated apoptosis in vivo, tumor tissue was collected from the window chamber by scraping the tumor out of the chamber into a trypsin solution, stirring for 30 minutes with 10 μg/ml DNase and 5 μg/ml collagenase, filtering the suspension using a […] cell strainer. Flow cytometry was then performed using a FACS Caliber flow cytometer (Becton Dickinson Immunocytometry System, San Jose, Calif.) for the analysis of apoptosis in the cell population obtained from the window chamber. All data was acquired with an event acquisition set for 10,000 events. Data was analyzed using CellQuest Pro cytometer software.
On the technique in general: Flow cytometry measures light scatter and fluorescence of single cells or particles in a stream.

Data set [2] concerns SCK mammary tumors. Kind of data set: SCK mammary tumor window chamber model, in vivo apoptosis imaging with FAM-VAD-FMK (488 nm, FITC filter). Set-up: species or system A/J mice. Particulars: 8.0 mg/kg ATO, 8 μg FAM-VAD-FMK IV, 30 min circulation. How it is done: (§1) Using a mouse window chamber model, SCK mammary tumors were evaluated for levels of apoptosis induction in tumors following irradiation treatment with arsenic trioxide (ATO) and heat. A window chamber, used for viewing tumors, was placed over a fold of skin in A/J mice. 2×10^5 SCK mammary carcinoma cells were injected into the skin fold. The tumors were allowed to grow for 7 to 9 days. In the test mice, tumors were irradiated with 20 Gy, 8 mg/kg ATO and 2 hours later the tumors were heated at 41.5° C. for 60 minutes. Control mice were not treated with irradiation or heat and a placebo was injected instead of ATO.
(§2) After allowing the tumors to grow 7 days, the test mice were first irradiated with 20 Gy. This was immediately followed by an intraperitoneal (I.P.) injection of ATO. The ATO was dissolved in water and injected in a solution of PBS with 5% w/v of dextrose at a concentration of 8 mg/kg. After 2 hours the tumors were heated at 41.5° C. for 60 minutes. Control mice received an I.P. injection of PBS with 5% dextrose.
Apoptosis was detected by injecting the in vivo apoptosis detection reagent FAM-VAD-FMK into the tail vein of control and test mice. […]
Control mice were given FAM-VAD-FMK injections following placebo injections. […] Test mice that received ATO treatment were given FAM-VAD-FMK injections at 3 hours and 24 hours after ATO treatment, and apoptosis was evaluated as before. […]

Data set [3] concerns FSaII murine fibrosarcoma tumors. In words: Longitudinal apoptosis imaging of FSaII tumor in dorsal skin flap chamber (DSFC) with FAM-VAD-FMK. It is filed as in vivo, nu/nu mice. As to the method:
A longitudinal study was performed in nu/nu mice to assess the efficacy of arsenic trioxide (ATO) on FSaII murine fibrosarcoma tumors before and after ATO treatment through a window chamber.
Dorsal skin flap chambers (DSFC) were surgically implanted into the backs of nu/nu mice as follows. Entire implantation procedure was conducted within a laminar flow hood to preserve a sterile field. Skin was washed twice with betadine and allowed to dry. One sterilized chamber piece containing a round window (9 mm) was placed on one side of the dorsal skin fold. Holes for three connecting screws were made through the skin fold connecting with another chamber piece with a similar window. The assembly was then tightened together with screws and nuts through the chamber piece spacers. A circle of cutaneous tissue and fascia was carefully cut away from the skin fold inside the DSFC window, exposing the blood vessels of the subcutaneous tissue adjacent to the striated muscles of the opposing skin fold. Antibiotic ointment (bacitracin zinc/polymyxin B sulfate/neomycin sulfate) was used on the edges of the wound inside the DSFC window. A glass window was placed in the chamber to cover the exposed tissue and secured with a snap C-ring. The surgical wound procedure was then repeated in the opposite DSFC window so that a very thin, transparent layer of fascia and vessels remained visible through both windows (created to facilitate microscope light transmission through the tissue). Finally, the chamber was sutured to the skin.
After surgery, the animals were housed in barrier cages inside a humidified incubator maintained at 32° C. with unrestricted access to food and water. To minimize risk of infection, all mice were given amoxicillin in their drinking water (250 mg per 5 mL water) after DSFC implantation and throughout the experiment.
Tumor cells were implanted into one side of the chamber by temporary removal of the C-ring and glass cover slip. […]

For data set [4], the system named is SCK mammary tumors. In words: SCK mammary tumor window chamber model, bright-field imaging of hemorrhaging. Particulars: 8.0 mg/kg ATO. It is filed as in vivo, A/J mice. How it is done:
as §1, §2
Prior to treatment, tumors were examined in control mice and designated test mice. Low magnification bright-field image composite photographs of SCK mammary tumors taken through a window chamber reveal a low level of hemorrhaging in all tumors (FIG. 1). […]

For `CN1CC[C@]23c4c5ccc(O)c4O[C@H]2[C@@H](O)C=C[C@H]3[C@H]1C5` [Morphine, morphine], the “enhancement of apoptosis of LPS activated cells” value in data set [1] is recorded as “enhanced apoptosis of LPS activated cells”.
arsenic trioxide [ATO]: the “apoptotic cells (apoptosis induction rate)” value in the data set on SCK tumor cells (24 hours after treatment, flow cytometry, 10,000 events, control mouse 18%) stood at 39%. The “increase in apoptosis versus control mouse” value in the data set on SCK tumor cells (24 hours, flow cytometry) is “two-fold increase”. In addition, the entries for the “level of apoptosis in tumor (fluorescence)” value in the data set with SCK mammary tumors [2] (3 hours post ATO) and in the data set with SCK mammary tumors [2] (24 hours post ATO) were “substantial increase in the level of apoptosis; also recorded: high level of apoptosis” and “even higher; also recorded: higher level of apoptosis”, respectively. Further, the “level of apoptosis in tumor (fluorescence, 10×)” value in data set [3] (8.0 mg/kg ATO IP, 3 hours post ATO, 12.0 μg FAM-VAD-FMK IV, 45 min, same tumor before vs after) is “significant level of apoptosis; also recorded: increase in apoptosis within the tumor is clear”. For the same compound, the “level of hemorrhaging in tumor” value is “Increased levels of hemorrhaging” with SCK mammary tumors [4] (3 hours after completion of treatment, vs placebo control) and “amount of hemorrhaging has also increased over time” in the data set with SCK mammary tumors [4] (24 hours after completion of treatment, vs 3 hour photograph).
As to “carboxyfluorescein-valanyl-alanyl-aspartyl(O-methyl)-fluoromethyl ketone [FAM-VAD-FMK]”, the “in vivo detection of apoptosis in living tissue” value in data set [3] (IV injection) was “works for the in vivo detection of apoptosis”. Moreover, the “side-effects of the reagent in longitudinal studies” value in data set [3] (IV injection, repeated in the same animal) is recorded as “no side-effects”.

The values above are taken from US8187573B2, “In vivo detection of apoptosis” (priority 2005, dated 2012).
